Values quoted from earlier work, collected in PubChem BioAssay AID1259409 (Chemical Carcinogenesis Research Information System (CCRIS), 2018).

System: rodent chemically induced tumor inhibition, incidence and multiplicity
Assay: CCRIS tumor inhibitor studies
Settings: Carcinogen: N-METHYL-N-NITROSOUREA, 684-93-5, Route [Inhibitor]: ORAL, Promoter: NONE USED

## CC1=C(/C=C/C(C)=C/C=C/C(C)=C/C(=O)NCCO)C(C)(C)CCC1
Dose [Inhibitor]: 2 MMOL/KG DIET DAILY STARTING 12 D AFTER CARCINOGEN TREATMENT THROUGH ABOUT 8 MO AFTER CARCINOGEN DOSE (STUDY DURATION:, Species: RAT, Strain/Sex: F344/MALE, Target Tissue: Type of Lesion: COLON: ADENOMA, Dose [Carcinogen]: 2.5 MG 1/WK FOR 2 WK
  tumour outcome (control, treated, inhibition, significance): 16/39 (41%), 12/30 (40%), 5%, not significant
Dose [Inhibitor]: 343 MG/KG DIET DAILY STARTING 1 WK AFTER LAST CARCINOGEN TREATMENT AND CONTINUING FOR 6 MO (STUDY DURATION: 9 MO), Species: HAMSTER, Strain/Sex: SYRIAN/MALE, Target Tissue: Type of Lesion: TRACHEA: BENIGN EPITHELIAL NEOPLASM, Dose [Carcinogen]: 0.5% IN 1 ML PHOSPHATE-BUFFERED SALINE 1/WK FOR 12 WK
  tumour outcome (control, treated, inhibition, significance): 6/63 (10%), 6/62 (10%), 0%, not significant
Dose [Inhibitor]: 343 MG/KG DIET DAILY STARTING 1 WK AFTER LAST CARCINOGEN TREATMENT AND CONTINUING FOR 6 MO (STUDY DURATION: 9 MO), Species: HAMSTER, Strain/Sex: SYRIAN/MALE, Target Tissue: Type of Lesion: TRACHEA: CARCINOMA, Dose [Carcinogen]: 0.5% IN 1 ML PHOSPHATE-BUFFERED SALINE 1/WK FOR 12 WK
  tumour outcome (control, treated, inhibition, significance): 4/63 (6%), 11/62 (18%), -200%, not significant
Dose [Inhibitor]: 343 MG/KG DIET DAILY STARTING 1 WK AFTER LAST CARCINOGEN TREATMENT AND CONTINUING FOR 6 MO (STUDY DURATION: 9 MO), Species: HAMSTER, Strain/Sex: SYRIAN/MALE, Target Tissue: Type of Lesion: TRACHEA: EPITHELIAL NEOPLASM, Dose [Carcinogen]: 0.5% IN 1 ML PHOSPHATE-BUFFERED SALINE 1/WK FOR 12 WK
  tumour outcome (control, treated, inhibition, significance): 10/63 (16%), 17/62 (27%), -69%, not significant
Dose [Inhibitor]: 343 MG/KG IN DIET DAILY FOR 6 MO STARTING 1 WK AFTER FINAL CARCINOGEN DOSE (STUDY DURATION: 9 MO), Species: HAMSTER, Strain/Sex: SYRIAN/MALE, Target Tissue: Type of Lesion: TRACHEA: BENIGN EPITHELIAL NEOPLASM, Dose [Carcinogen]: 0.5% SOLUTION FOR 5 SECOND EXPOSURE 1/WK FOR 12 WK
  tumour outcome (control, treated, inhibition, significance): 6/63 (10%), 6/62 (10%), 0%, not significant
Dose [Inhibitor]: 343 MG/KG IN DIET DAILY FOR 6 MO STARTING 1 WK AFTER FINAL CARCINOGEN DOSE (STUDY DURATION: 9 MO), Species: HAMSTER, Strain/Sex: SYRIAN/MALE, Target Tissue: Type of Lesion: TRACHEA: CARCINOMA, Dose [Carcinogen]: 0.5% SOLUTION FOR 5 SECOND EXPOSURE 1/WK FOR 12 WK
  tumour outcome (control, treated, inhibition, significance): 4/63 (6%), 11/62 (18%), -200%, not significant
Dose [Inhibitor]: 343 MG/KG IN DIET DAILY FOR 6 MO STARTING 1 WK AFTER FINAL CARCINOGEN DOSE (STUDY DURATION: 9 MO), Species: HAMSTER, Strain/Sex: SYRIAN/MALE, Target Tissue: Type of Lesion: TRACHEA: EPITHELIAL NEOPLASM, Dose [Carcinogen]: 0.5% SOLUTION FOR 5 SECOND EXPOSURE 1/WK FOR 12 WK
  tumour outcome (control, treated, inhibition, significance): 10/63 (16%), 17/62 (27%), -69%, not significant
Dose [Inhibitor]: 686 MG/KG DIET DAILY FOR 24 WK STARTING 5 D AFTER LAST DOSE OF CARCINOGEN (STUDY DURATION: 32 WK), Species: RAT, Strain/Sex: F344/MALE, Target Tissue: Type of Lesion: COLON: SARCOMA, Dose [Carcinogen]: 0.5 MG 2/WK FOR 8 WK
  tumour outcome (control, treated, inhibition, significance): 5/40 (13%), 1/40 (3%), 77%, not calculated
Dose [Inhibitor]: 686 MG/KG DIET DAILY FOR 24 WK STARTING 5 D AFTER LAST DOSE OF CARCINOGEN (STUDY DURATION: 32 WK), Species: RAT, Strain/Sex: F344/MALE, Target Tissue: Type of Lesion: COLON: TUMOR, Dose [Carcinogen]: 0.5 MG 2/WK FOR 8 WK
  tumour outcome (control, treated, inhibition, significance): 60%, 68%, -13%, not significant
Dose [Inhibitor]: 686 MG/KG DIET DAILY FOR 38 WK STARTING 5 D AFTER LAST DOSE OF CARCINOGEN (STUDY DURATION: 44 WK), Species: RAT, Strain/Sex: F344/MALE, Target Tissue: Type of Lesion: COLON: MESOTHELIOMA, Dose [Carcinogen]: 0.5 MG, 2/WK FOR 6 WK STARTING 6 WK PRIOR TO AGENT TREATMENT
  tumour outcome (control, treated, inhibition, significance): 1/50 (2%), 2/49 (1%), 50%, not calculated
Dose [Inhibitor]: 686 MG/KG DIET DAILY FOR 38 WK STARTING 5 D AFTER LAST DOSE OF CARCINOGEN (STUDY DURATION: 44 WK), Species: RAT, Strain/Sex: F344/MALE, Target Tissue: Type of Lesion: COLON: TUMOR, Dose [Carcinogen]: 0.5 MG 2/WK FOR 6 WK
  tumour outcome (control, treated, inhibition, significance): 62%, 61%, 2%, not significant
Dose [Inhibitor]: 686 MG/KG DIET DAILY FOR 48 WK STARTING 5 D AFTER LAST DOSE OF CARCINOGEN (STUDY DURATION: 52 WK), Species: RAT, Strain/Sex: F344/MALE, Target Tissue: Type of Lesion: COLON: TUMOR, Dose [Carcinogen]: 0.5 MG 2/WK FOR 4 WK
  tumour outcome (control, treated, inhibition, significance): 31%, 27%, 13%, not significant
